According to ChEMBL document CHEMBL5463725, “Data for DCP probe BAY-277” (2023):

Key:
[1] = target: Muscarinic acetylcholine receptor M5 (Homo sapiens) (UniProt P08912); conditions: Compound concentration 10.0 uM
[2] = target: Aldo-keto reductase family 1 member B1 (Rattus norvegicus) (UniProt P07943); assay: Inhibition of Aldose Reductase at 10.0 µM in the Eurofins Panlabs Safety Screen; conditions: Compound concentration 10.0 uM
[3] = target: D(2) dopamine receptor (Homo sapiens) (UniProt P14416); conditions: Compound concentration 10.0 uM
D(3) dopamine receptor = D(3) dopamine receptor (Homo sapiens, UniProt P35462); assay: Inhibition of Dopamine D3 at 10.0 µM in the Eurofins Panlabs Safety Screen; conditions: Compound concentration 10.0 uM
[4] = target: Glutamate receptor 2 (Homo sapiens) (UniProt P42262); assay: Inhibition of Glutamate, AMPA at 10.0 µM in the Eurofins Panlabs Safety Screen; conditions: Rattus norvegicus; Compound concentration 10.0 uM
[5] = target: Histamine H2 receptor (Homo sapiens) (UniProt P25021); conditions: Compound concentration 10.0 uM
[6] = target: T1, Alpha-2C adrenergic receptor (Homo sapiens) (UniProt P18825); assay: Inhibition of Adrenergic alpha2C at 10.0 µM in the Eurofins Panlabs Safety Screen; conditions: Compound concentration 10.0 uM
T1 sequence (whole entry): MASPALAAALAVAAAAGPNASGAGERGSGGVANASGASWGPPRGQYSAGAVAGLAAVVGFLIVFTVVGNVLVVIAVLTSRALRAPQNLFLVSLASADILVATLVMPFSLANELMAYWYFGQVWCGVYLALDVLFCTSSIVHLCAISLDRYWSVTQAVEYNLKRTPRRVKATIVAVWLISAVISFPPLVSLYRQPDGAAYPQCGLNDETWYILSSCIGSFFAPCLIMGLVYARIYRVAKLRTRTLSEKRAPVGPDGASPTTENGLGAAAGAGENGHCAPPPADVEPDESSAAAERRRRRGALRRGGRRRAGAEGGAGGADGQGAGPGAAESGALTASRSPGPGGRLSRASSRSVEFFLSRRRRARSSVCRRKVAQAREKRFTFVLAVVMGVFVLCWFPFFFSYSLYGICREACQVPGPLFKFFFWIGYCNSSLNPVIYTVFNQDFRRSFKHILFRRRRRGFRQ

[7] = target: Nitric oxide synthase, inducible (Homo sapiens) (UniProt P35228); assay: Inhibition of Nitric Oxide Synthetase, Inducible (iNOS) at 10.0 µM in the Eurofins Panlabs Safety Screen; conditions: Mus musculus; Compound concentration 10.0 uM
[8] = target: 5-hydroxytryptamine receptor 2A (Homo sapiens) (UniProt P28223); assay: Inhibition of Serotonin (5-Hydroxytryptamine) 5-HT2A at 10.0 µM in the Eurofins Panlabs Safety Screen; conditions: Compound concentration 10.0 uM
[9] = target: Monoamine oxidase B (MAO-B) (Homo sapiens, UniProt P27338); assay: Inhibition of Monoamine Oxidase MAO-B at 10.0 µM in the Eurofins Panlabs Safety Screen; conditions: compound concentration 10 uM
[10] = target: Prostaglandin G/H synthase 1 (Homo sapiens) (UniProt P23219); assay: Inhibition of Cyclooxygenase COX-1 at 10.0 µM in the Eurofins Panlabs Safety Screen; conditions: Compound concentration 10.0 uM
[11] = target: Sodium-dependent dopamine transporter (Homo sapiens, UniProt Q01959); conditions: Compound concentration 10.0 uM
[12] = target: Mitogen-activated protein kinase kinase kinase 21 (Homo sapiens) (UniProt Q5TCX8); assay: Inhibition of MLK4(h) at 10.0 µM in the Eurofins Kinase panel; conditions: Compound concentration 10.0 uM
[13] = target: cGMP-specific 3',5'-cyclic phosphodiesterase (Homo sapiens) (UniProt O76074); assay: Inhibition of Phosphodiesterase PDE5A at 10.0 µM in the Eurofins Panlabs Safety Screen; conditions: Compound concentration 10.0 uM
[14] = target: D(1A) dopamine receptor (Homo sapiens) (UniProt P21728); conditions: Compound concentration 10.0 uM
[15] = target: Dual specificity protein kinase CLK1 (Homo sapiens) (UniProt P49759); assay: Inhibition of CLK1(h) at 10.0 µM in the Eurofins Kinase panel; conditions: Compound concentration 10.0 uM
[16] = target: cGMP-inhibited 3',5'-cyclic phosphodiesterase 3A (Homo sapiens) (UniProt Q14432); assay: Inhibition of Phosphodiesterase PDE3A at 10.0 µM in the Eurofins Panlabs Safety Screen; conditions: Compound concentration 10.0 uM
[17] = target: D(1A) dopamine receptor (Homo sapiens) (UniProt P21728); assay: Inhibition of Dopamine D1 at 10.0 µM in the Eurofins Panlabs Safety Screen; conditions: Compound concentration 10.0 uM
[18] = target: Histamine H1 receptor (Homo sapiens) (UniProt P35367); conditions: Compound concentration 10.0 uM
[19] = target: Endothelin receptor type B (Homo sapiens) (UniProt P24530); assay: Inhibition of Endothelin ETB at 10.0 µM in the Eurofins Panlabs Safety Screen; conditions: Compound concentration 10.0 uM
[20] = target: 5-hydroxytryptamine receptor 7 (Homo sapiens) (UniProt P34969); conditions: Compound concentration 10.0 uM
[21] = target: 5-hydroxytryptamine receptor 1B (Homo sapiens) (UniProt P28222); conditions: Compound concentration 10.0 uM
[22] = target: Glucocorticoid receptor (Homo sapiens) (UniProt P04150); assay: Inhibition of Glucocorticoid at 10.0 µM in the Eurofins Panlabs Safety Screen; conditions: Compound concentration 10.0 uM
[23] = target: Purinergic P2Y (Rattus norvegicus) (UniProt O35811+Q9EPX4+P49651+Q63371+P41232+O35881+Q6GUG4); assay: Inhibition of Purinergic P2Y, non-selective at 10.0 µM in the Eurofins Panlabs Safety Screen; type: protein assay; conditions: Compound concentration 10.0 uM
[24] = target: T2, 5-hydroxytryptamine receptor 2C (Homo sapiens) (UniProt P28335); assay: Inhibition of Serotonin (5-Hydroxytryptamine) 5-HT2C at 10.0 µM in the Eurofins Panlabs Safety Screen; conditions: Compound concentration 10.0 uM
T2 sequence (whole entry): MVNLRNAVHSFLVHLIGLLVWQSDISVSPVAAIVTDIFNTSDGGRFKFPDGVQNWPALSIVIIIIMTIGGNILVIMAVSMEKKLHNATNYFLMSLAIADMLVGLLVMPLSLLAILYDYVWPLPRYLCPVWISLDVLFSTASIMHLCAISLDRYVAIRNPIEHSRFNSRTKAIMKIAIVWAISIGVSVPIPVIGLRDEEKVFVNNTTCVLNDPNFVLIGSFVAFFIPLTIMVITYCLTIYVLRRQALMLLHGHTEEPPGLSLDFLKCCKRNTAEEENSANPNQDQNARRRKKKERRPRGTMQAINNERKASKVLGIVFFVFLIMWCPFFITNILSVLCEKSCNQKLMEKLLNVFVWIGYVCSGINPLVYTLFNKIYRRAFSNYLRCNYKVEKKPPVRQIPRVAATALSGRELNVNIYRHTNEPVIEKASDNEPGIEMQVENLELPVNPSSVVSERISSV

[25] = target: Serine/threonine-protein kinase Sgk2 (Homo sapiens) (UniProt Q9HBY8); assay: Inhibition of SGK2(h) at 10.0 µM in the Eurofins Kinase panel; conditions: Compound concentration 10.0 uM
[26] = target: Vascular endothelial growth factor receptor 3 (Homo sapiens) (UniProt P35916); assay: Inhibition of Flt4(h) at 10.0 µM in the Eurofins Kinase panel; conditions: Compound concentration 10.0 uM

Chain of D(2) dopamine receptor (Homo sapiens) (P14416 whole entry): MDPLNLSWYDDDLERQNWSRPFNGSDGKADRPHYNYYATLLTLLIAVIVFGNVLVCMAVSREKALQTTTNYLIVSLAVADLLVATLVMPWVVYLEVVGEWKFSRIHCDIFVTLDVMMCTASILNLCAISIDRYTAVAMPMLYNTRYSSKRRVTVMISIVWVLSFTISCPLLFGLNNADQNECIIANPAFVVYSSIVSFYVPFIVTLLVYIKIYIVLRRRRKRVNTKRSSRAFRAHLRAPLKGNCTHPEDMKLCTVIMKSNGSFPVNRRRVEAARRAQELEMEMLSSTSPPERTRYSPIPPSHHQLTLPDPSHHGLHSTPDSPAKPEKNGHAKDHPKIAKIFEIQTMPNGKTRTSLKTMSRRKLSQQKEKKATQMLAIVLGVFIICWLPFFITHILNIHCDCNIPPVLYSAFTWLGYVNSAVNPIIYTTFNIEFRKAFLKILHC
Chain of D(1A) dopamine receptor (Homo sapiens) (P21728 whole entry): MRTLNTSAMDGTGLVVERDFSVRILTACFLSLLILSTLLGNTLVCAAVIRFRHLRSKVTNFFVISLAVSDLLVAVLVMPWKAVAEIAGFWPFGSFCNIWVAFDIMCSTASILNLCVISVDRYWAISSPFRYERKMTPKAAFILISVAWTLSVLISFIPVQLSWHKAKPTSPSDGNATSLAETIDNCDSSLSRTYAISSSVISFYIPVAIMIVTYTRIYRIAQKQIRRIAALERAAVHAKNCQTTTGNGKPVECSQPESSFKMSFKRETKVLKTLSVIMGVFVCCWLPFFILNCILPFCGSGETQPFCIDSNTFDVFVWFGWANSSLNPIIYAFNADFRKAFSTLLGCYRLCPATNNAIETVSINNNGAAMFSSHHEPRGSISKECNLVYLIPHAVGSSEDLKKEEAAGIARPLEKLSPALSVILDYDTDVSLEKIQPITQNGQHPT
Chain of Histamine H2 receptor (Homo sapiens) (P25021 whole entry): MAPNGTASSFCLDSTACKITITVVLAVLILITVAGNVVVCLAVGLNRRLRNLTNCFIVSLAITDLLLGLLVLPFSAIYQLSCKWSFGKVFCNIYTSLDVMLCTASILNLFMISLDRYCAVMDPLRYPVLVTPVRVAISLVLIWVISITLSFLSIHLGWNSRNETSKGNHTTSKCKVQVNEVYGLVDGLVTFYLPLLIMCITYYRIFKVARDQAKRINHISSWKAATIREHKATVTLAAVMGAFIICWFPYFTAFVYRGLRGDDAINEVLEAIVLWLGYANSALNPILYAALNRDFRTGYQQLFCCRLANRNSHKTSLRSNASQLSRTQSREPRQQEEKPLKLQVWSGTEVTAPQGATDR
Chain of Sodium-dependent dopamine transporter (Q01959 whole entry): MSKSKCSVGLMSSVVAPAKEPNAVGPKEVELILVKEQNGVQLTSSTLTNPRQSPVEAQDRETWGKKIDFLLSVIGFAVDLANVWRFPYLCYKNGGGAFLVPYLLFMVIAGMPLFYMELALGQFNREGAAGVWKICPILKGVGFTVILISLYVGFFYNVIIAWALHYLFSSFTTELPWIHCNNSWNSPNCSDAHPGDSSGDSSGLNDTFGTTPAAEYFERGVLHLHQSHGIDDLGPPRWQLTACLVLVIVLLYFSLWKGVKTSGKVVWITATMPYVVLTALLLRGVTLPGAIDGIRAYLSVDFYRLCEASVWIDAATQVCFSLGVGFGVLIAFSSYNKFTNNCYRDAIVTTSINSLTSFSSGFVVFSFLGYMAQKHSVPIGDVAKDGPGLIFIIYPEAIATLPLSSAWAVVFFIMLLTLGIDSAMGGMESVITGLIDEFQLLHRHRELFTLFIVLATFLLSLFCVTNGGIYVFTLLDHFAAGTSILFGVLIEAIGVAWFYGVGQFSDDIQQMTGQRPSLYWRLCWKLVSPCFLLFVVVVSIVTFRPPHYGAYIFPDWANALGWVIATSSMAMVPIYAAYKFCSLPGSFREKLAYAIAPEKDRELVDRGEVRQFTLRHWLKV
Chain of 5-hydroxytryptamine receptor 7 (Homo sapiens) (P34969 whole entry): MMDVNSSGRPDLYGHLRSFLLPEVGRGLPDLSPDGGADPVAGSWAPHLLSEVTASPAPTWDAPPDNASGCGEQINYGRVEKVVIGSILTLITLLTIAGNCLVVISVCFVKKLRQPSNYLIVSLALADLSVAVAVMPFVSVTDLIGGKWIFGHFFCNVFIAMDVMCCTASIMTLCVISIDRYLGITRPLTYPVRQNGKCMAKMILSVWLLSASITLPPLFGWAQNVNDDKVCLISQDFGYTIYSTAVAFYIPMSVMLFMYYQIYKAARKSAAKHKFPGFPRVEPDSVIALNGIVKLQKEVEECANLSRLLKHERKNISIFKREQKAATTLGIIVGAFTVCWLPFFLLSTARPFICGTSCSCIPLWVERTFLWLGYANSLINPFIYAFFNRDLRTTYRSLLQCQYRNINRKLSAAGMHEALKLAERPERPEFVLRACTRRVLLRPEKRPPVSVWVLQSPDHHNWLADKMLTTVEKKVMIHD
Chain of Muscarinic acetylcholine receptor M5 (Homo sapiens) (P08912 whole entry): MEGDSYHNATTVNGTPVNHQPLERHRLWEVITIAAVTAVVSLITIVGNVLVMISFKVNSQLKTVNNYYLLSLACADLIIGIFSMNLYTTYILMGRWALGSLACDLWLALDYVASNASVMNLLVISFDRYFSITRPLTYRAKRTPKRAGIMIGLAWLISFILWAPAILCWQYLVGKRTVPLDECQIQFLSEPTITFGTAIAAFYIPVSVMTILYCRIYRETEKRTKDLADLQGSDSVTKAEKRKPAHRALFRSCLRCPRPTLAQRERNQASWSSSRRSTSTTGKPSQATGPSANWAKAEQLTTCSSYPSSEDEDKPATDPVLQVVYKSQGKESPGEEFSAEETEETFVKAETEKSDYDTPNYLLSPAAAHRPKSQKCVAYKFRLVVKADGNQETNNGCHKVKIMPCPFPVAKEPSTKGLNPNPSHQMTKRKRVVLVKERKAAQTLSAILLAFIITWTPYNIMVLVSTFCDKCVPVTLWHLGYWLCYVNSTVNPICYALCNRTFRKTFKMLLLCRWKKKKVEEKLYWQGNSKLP
Chain of 5-hydroxytryptamine receptor 1B (Homo sapiens) (P28222 whole entry): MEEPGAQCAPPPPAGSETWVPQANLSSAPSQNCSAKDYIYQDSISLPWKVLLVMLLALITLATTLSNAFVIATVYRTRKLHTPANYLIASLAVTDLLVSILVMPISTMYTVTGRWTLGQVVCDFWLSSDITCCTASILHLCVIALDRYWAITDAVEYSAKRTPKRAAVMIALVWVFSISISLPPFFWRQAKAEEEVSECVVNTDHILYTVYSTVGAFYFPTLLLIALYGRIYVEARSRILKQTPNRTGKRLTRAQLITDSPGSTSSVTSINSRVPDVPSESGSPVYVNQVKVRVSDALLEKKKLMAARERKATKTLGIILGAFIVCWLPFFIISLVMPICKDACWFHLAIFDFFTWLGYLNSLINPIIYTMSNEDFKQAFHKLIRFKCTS
Chain of Histamine H1 receptor (Homo sapiens) (P35367 whole entry): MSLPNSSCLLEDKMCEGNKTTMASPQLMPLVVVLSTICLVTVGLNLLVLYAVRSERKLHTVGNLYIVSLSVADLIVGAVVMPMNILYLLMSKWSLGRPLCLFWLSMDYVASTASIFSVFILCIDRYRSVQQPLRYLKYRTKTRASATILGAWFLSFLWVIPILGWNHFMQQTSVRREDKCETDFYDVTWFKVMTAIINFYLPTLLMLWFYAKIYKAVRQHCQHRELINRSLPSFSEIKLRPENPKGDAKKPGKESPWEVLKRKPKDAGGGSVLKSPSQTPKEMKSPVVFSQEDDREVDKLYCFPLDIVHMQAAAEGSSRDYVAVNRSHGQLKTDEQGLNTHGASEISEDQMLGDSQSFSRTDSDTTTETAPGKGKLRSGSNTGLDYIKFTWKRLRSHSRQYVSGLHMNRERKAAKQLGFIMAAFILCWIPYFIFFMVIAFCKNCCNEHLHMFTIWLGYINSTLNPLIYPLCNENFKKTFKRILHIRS
Chain of Dual specificity protein kinase CLK1 (Homo sapiens) (P49759 whole entry, looked up): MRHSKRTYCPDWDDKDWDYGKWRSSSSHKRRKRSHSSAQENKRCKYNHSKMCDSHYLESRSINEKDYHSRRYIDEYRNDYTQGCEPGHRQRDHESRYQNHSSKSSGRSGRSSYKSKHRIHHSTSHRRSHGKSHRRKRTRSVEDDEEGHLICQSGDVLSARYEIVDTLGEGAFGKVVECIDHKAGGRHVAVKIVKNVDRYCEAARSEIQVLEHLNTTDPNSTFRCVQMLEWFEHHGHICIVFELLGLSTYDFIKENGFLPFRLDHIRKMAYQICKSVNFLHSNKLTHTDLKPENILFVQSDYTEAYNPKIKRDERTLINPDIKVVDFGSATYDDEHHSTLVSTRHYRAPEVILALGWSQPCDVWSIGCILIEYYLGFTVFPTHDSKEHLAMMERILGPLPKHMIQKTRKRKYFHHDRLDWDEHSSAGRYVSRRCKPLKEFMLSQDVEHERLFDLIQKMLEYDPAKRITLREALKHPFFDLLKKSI
Chain of Monoamine oxidase B (MAO-B) (P27338 whole entry): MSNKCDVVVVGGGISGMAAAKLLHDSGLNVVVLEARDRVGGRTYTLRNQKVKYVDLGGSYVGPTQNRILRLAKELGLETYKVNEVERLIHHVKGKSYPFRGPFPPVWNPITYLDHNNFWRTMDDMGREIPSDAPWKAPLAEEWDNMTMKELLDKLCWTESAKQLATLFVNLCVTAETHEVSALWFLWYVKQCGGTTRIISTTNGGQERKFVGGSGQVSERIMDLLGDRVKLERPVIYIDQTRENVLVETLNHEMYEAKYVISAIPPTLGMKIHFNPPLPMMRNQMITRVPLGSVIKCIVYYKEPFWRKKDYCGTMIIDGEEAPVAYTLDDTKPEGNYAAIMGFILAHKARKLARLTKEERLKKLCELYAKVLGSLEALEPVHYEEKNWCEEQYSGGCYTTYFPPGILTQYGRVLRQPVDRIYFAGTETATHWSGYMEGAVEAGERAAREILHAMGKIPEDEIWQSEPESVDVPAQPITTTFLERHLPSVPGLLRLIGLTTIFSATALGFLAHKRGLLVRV

| SMILES | inhibition [1] [%] | inhibition [2] [%] | inhibition [3] [%] | inhibition (D(3) dopamine receptor) [%] | inhibition [4] [%] | inhibition [5] [%] | inhibition [6] [%] | inhibition [7] [%] | inhibition [8] [%] | inhibition at 10 µM [9] [%] | inhibition [10] [%] | inhibition [11] [%] | inhibition [13] [%] | inhibition [14] [%] | inhibition [15] [%] | inhibition [16] [%] | inhibition [17] [%] | inhibition [18] [%] | inhibition [19] [%] | inhibition [20] [%] | also measured |
| --- | --- | --- | --- | --- | --- | --- | --- | --- | --- | --- | --- | --- | --- | --- | --- | --- | --- | --- | --- | --- | --- |
| O=C1NCCCC1N1Cc2cc(C3CCN(C(=O)CCCCCN4CCC(c5ccc(Oc6nn7cnnc7c7c6CCCC7)cc5)CC4)CC3)ccc2C1=O (stereo unspecified) | 41.8 | 29 | 21.7 | 76 | 3 | 42.1 | 62 | -3 | 39 | 30 | 21 | 51.4 | 10 | 8.56 | 16.7 | 6 | 20 | 14.2 | -5 | 32.5 | inhibition [12]: 10.7%; inhibition [21]: 14.2%; inhibition [22]: 20%; inhibition [23]: 12%; inhibition [24]: 2% |
| O=C1CCC(N2Cc3cc(C4CCN(C(=O)CCCCCN5CCC(c6ccc(Oc7nn8cnnc8c8c7CCCC8)cc6)CC5)CC4)ccc3C2=O)C(=O)N1 (stereo unspecified) | 71 | 32 | 20.9 | 90 | 0 | 42.2 | 79 | 0 | 35 | 34 | 16 | 50.7 | 25 | 5.21 | 13.9 | 6 | 16 | 10.3 | 2 | 36.8 | inhibition [25]: 16.5%; inhibition [26]: 12.5%; inhibition [21]: 21.9%; inhibition [22]: 13%; inhibition [23]: 4%; inhibition [24]: 14% |
